Laboratory results reported in PMC2831140 (Biochemistry, 2010).

Biological target: T1, TbQSOX (Trypanosoma brucei, UniProt Q585M6)
T1 sequence (Q585M6 20-485): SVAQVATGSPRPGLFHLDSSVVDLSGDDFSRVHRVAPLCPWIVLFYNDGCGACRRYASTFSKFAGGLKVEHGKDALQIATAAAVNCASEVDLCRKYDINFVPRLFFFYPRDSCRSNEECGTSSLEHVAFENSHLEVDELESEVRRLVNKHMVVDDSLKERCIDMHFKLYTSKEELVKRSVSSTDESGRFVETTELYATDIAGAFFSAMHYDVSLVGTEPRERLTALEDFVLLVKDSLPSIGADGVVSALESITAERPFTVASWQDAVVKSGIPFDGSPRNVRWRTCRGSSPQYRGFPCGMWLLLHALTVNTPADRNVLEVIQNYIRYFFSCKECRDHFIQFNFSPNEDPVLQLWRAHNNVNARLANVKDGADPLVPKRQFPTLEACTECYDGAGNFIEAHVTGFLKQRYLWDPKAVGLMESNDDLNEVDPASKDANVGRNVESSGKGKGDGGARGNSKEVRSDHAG
Test: UV/Vis spectrum of bound flavin in purified protein
Type: binding
Details: 50 mM phosphate pH 7.5, 1 mM EDTA; prosthetic group in Erv/ALR domain

Compound: Cc1cc2nc3c(=O)[nH]c(=O)nc-3n(C[C@H](O)[C@H](O)[C@H](O)COP(=O)(O)OP(=O)(O)OC[C@H]3O[C@@H](n4cnc5c(N)ncnc54)[C@H](O)[C@@H]3O)c2cc1C [FAD]
- UV/Vis spectrum of bound flavin in purified protein: found to be a stable, monomeric, FAD-containing protein
